Measurements reported in patent publication US10870647B2, “Imidazopyridine derivative, method for preparing same, and pharmaceutical composition containing same as active ingredient for preventing or treating cancer” (DAEGU-GYEONGBUK MEDICAL INNOVATION FOUNDATION, priority 2016, dated 2020).

Tests used:
Experiment in all cases: Kinase selectivity, scanMAX Kinase assay panel (DiscoverX), % control at 1 uM
Assay type in all cases: binding
[1] = molecular target: T1, scanMAX Kinase assay panel (Homo sapiens, UniProt O00141); details: SGK; 1 uM; read-out: Percent Control (%)
T1 construct: purchased DiscoverX
T1 sequence (O00141 1-431): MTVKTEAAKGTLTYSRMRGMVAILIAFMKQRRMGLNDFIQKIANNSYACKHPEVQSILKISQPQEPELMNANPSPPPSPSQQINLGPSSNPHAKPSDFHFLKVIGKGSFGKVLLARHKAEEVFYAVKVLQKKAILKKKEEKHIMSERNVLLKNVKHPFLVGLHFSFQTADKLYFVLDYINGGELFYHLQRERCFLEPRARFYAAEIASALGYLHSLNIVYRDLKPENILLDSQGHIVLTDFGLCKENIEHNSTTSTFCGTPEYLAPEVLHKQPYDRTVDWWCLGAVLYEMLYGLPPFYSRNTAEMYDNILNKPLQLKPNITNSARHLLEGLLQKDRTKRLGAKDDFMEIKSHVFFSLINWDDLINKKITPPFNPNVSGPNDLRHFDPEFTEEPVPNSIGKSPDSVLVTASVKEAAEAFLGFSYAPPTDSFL
Method in brief: (§1)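 Each kinase was first exposed to the test compound at 1 uM in DMSO. Signal was then normalised to positive and negative controls to give % control. Finally, any enzyme showing <35% control was judged inhibited.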

[2] = molecular target: T2, scanMAX Kinase assay panel (Homo sapiens, UniProt P00533, T790M); details: EGFR (T790M); 1 uM; read-out: Percent Control (%)
T2 construct: purchased DiscoverX
Method in brief: as §1

[3] = molecular target: T3, scanMAX Kinase assay panel (Homo sapiens, UniProt P04626); details: ERBB2; 1 uM; read-out: Percent Control (%)
T3 construct: purchased DiscoverX
T3 sequence (P04626 23-1255): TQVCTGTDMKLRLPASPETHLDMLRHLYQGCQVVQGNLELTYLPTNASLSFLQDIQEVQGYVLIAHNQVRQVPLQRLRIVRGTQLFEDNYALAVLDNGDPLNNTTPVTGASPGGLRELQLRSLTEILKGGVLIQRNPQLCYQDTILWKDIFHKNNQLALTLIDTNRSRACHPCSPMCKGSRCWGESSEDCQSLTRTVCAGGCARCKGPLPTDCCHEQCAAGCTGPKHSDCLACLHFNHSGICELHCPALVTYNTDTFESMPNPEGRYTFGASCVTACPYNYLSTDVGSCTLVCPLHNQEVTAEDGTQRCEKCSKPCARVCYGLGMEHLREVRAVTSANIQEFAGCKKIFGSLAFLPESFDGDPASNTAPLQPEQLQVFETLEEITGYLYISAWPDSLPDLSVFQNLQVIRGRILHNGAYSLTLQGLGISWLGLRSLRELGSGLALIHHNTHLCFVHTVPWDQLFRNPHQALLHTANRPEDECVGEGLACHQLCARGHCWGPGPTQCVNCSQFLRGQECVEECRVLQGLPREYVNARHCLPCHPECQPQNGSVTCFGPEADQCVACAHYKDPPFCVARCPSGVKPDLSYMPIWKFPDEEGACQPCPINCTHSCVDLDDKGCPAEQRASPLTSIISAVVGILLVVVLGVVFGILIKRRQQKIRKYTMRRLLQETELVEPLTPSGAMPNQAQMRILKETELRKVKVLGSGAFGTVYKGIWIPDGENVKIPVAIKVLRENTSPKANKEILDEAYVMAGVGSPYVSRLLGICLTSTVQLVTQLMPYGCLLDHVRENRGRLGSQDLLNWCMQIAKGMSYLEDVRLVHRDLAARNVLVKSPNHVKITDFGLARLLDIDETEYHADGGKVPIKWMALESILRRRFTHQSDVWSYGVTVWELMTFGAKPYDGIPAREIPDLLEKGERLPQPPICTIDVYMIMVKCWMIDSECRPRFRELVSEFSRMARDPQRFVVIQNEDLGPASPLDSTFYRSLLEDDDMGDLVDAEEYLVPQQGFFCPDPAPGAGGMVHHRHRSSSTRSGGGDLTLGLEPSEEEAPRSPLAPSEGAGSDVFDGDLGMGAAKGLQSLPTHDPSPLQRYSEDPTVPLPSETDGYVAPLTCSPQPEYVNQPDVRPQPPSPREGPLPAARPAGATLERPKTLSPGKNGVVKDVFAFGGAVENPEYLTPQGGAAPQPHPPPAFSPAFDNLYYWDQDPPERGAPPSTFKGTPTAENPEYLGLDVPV
Method in brief: as §1

[4] = molecular target: T4, scanMAX Kinase assay panel (Homo sapiens, UniProt P27037); details: ACVR2A; 1 uM; read-out: Percent Control (%)
T4 construct: purchased DiscoverX
T4 sequence (P27037 20-513): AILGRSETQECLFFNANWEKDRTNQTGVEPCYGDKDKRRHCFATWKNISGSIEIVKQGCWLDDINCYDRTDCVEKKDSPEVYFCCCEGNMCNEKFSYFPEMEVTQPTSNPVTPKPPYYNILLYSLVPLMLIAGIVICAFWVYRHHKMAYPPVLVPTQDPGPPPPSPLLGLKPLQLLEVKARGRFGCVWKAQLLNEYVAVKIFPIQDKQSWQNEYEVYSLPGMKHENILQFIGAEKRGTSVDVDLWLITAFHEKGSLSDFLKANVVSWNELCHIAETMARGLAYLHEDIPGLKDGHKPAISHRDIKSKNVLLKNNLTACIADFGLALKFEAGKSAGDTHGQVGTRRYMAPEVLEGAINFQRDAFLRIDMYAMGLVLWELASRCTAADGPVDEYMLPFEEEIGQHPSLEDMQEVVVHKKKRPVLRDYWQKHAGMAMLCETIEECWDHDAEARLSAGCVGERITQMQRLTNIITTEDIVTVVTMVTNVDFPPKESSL
Method in brief: as §1

[5] = molecular target: T5, scanMAX Kinase assay panel (Homo sapiens, UniProt P31751); details: AKT2; 1 uM; read-out: Percent Control (%)
T5 construct: purchased DiscoverX
T5 sequence (P31751 whole entry): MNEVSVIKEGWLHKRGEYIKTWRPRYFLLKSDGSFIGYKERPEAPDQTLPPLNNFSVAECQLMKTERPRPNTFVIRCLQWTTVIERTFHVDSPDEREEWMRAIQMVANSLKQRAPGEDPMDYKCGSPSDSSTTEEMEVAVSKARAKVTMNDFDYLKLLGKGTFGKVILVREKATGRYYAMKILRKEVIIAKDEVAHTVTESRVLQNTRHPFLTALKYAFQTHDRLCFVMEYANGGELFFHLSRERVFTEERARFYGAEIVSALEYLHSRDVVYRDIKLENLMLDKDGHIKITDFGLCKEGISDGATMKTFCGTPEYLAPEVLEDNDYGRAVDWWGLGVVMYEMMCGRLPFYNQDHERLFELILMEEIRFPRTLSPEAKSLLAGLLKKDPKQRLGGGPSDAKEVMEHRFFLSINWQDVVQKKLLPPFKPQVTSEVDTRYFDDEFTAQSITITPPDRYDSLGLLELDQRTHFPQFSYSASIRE
Method in brief: as §1

[6] = molecular target: T6, scanMAX Kinase assay panel (Homo sapiens, UniProt P42336, E545K); details: PIK3CA (E545K); 1 uM; read-out: Percent Control (%)
T6 construct: purchased DiscoverX
T6 sequence (P42336 whole entry E545K): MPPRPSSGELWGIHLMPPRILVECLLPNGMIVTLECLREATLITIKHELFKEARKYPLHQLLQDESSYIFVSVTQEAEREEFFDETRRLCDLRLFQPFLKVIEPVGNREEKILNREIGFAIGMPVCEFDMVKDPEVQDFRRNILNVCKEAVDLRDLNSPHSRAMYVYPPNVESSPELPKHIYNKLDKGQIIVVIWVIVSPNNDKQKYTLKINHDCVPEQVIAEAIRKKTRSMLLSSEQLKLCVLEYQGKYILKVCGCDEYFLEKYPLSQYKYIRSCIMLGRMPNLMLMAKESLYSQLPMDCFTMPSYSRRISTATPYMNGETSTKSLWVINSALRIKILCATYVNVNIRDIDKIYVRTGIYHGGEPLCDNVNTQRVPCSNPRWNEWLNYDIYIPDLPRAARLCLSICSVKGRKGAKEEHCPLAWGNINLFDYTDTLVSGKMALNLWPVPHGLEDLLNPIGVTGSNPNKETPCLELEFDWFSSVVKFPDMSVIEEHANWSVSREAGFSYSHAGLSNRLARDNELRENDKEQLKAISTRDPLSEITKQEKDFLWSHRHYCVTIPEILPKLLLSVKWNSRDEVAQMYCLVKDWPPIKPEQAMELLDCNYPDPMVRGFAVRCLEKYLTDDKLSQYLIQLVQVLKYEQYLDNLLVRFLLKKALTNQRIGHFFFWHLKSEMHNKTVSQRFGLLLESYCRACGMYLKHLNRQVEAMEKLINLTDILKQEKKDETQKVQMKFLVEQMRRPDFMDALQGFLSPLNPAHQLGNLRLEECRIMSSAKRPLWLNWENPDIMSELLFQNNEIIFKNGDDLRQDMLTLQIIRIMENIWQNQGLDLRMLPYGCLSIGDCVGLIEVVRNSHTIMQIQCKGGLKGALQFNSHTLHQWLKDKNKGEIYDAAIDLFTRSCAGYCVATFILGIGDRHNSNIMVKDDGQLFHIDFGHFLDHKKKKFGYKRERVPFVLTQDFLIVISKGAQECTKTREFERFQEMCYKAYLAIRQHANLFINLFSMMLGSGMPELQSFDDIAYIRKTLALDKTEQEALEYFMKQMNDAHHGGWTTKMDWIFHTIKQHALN
Method in brief: as §1

[7] = molecular target: T7, scanMAX Kinase assay panel (Homo sapiens, UniProt P42336, H1047L); details: PIK3CA (H1047L); 1 uM; read-out: Percent Control (%)
T7 construct: purchased DiscoverX
T7 sequence (P42336 whole entry H1047L): as the sequence (P42336 whole entry E545K) above, with K545E, H1047L counted along it
Method in brief: as §1

[8] = molecular target: T8, scanMAX Kinase assay panel (Homo sapiens, UniProt Q14289); details: PYK2; 1 uM; read-out: Percent Control (%)
T8 construct: purchased DiscoverX
T8 sequence (Q14289 whole entry): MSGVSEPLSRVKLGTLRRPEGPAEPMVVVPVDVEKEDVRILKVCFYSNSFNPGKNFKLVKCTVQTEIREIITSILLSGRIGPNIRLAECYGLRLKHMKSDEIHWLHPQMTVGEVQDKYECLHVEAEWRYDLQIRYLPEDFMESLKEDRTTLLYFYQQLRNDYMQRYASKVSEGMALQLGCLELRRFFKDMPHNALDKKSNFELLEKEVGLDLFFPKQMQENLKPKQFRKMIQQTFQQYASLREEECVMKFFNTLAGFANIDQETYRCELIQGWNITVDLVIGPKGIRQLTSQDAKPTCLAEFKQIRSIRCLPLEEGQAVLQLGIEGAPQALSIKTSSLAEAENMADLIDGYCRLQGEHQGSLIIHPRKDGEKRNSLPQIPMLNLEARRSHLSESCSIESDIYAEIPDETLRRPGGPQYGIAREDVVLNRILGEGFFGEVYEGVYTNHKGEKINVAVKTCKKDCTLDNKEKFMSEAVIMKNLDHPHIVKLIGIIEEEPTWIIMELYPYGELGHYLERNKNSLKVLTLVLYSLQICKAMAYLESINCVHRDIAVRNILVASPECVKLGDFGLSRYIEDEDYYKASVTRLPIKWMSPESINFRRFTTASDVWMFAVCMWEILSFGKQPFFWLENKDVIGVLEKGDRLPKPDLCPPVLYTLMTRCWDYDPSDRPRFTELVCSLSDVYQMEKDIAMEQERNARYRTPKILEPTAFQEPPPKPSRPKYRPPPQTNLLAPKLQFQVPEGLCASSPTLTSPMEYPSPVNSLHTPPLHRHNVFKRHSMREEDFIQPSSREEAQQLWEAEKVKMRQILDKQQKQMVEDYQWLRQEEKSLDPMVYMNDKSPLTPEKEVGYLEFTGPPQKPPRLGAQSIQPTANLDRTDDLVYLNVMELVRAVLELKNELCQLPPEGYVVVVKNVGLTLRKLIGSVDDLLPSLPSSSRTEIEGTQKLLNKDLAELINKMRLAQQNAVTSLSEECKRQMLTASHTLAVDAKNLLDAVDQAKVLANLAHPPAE
Method in brief: as §1

[9] = molecular target: T9, scanMAX Kinase assay panel (Homo sapiens, UniProt Q9NYY3); details: PLK2; 1 uM; read-out: Percent Control (%)
T9 construct: purchased DiscoverX
T9 sequence (Q9NYY3 whole entry): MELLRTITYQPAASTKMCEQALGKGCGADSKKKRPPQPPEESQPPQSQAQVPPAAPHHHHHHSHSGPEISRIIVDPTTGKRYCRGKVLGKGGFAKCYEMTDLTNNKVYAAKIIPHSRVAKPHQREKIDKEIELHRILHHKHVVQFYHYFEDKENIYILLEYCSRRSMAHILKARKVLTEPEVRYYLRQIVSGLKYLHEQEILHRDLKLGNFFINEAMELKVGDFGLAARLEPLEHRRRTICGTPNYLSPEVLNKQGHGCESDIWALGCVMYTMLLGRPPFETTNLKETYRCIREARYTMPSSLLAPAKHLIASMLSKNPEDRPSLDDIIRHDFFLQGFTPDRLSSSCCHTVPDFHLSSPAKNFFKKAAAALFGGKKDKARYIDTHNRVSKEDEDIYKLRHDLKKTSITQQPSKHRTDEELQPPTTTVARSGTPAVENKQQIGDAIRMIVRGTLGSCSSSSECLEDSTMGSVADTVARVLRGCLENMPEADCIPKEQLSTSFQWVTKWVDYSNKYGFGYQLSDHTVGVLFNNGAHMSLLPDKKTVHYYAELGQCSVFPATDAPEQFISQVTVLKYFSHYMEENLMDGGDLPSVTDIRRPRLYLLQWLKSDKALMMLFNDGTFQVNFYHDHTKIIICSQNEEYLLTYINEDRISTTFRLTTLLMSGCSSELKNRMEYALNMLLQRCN
Method in brief: as §1

[10] = molecular target: T10, scanMAX Kinase assay panel (Homo sapiens, UniProt Q9UBF8); details: PIK4CB; 1 uM; read-out: Percent Control (%)
T10 construct: purchased DiscoverX
Method in brief: as §1

[11] = molecular target: T11, scanMAX Kinase assay panel (Homo sapiens, UniProt Q9UF33); details: EPHA6; 1 uM; read-out: Percent Control (%)
T11 construct: purchased DiscoverX
T11 sequence (Q9UF33 23-1036): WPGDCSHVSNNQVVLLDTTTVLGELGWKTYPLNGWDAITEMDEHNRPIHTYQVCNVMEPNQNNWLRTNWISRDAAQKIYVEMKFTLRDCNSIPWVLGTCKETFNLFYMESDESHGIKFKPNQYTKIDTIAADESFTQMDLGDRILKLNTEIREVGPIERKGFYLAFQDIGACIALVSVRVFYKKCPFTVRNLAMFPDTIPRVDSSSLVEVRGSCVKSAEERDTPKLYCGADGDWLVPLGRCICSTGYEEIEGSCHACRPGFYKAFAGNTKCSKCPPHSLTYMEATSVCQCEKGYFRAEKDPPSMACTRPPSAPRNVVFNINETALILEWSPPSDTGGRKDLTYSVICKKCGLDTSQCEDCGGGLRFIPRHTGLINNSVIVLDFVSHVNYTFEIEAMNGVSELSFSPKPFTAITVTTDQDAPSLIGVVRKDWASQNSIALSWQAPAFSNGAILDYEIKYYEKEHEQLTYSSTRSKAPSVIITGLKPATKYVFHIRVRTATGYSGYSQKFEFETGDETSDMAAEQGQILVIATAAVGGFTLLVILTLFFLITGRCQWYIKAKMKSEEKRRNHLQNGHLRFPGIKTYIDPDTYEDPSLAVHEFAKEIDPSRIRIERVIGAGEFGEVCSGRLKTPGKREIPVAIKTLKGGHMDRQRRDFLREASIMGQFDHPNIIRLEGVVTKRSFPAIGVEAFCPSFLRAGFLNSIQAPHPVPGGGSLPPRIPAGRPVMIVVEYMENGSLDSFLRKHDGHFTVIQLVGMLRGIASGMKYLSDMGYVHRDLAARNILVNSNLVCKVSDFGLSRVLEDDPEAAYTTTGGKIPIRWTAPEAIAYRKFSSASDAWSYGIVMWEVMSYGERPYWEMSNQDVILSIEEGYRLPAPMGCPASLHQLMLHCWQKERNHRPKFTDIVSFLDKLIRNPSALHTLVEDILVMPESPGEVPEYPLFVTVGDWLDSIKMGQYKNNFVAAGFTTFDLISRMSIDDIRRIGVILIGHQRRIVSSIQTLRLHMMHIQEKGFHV
Method in brief: as §1

| SMILES | remaining binding at 1 µM [1] [%] | remaining binding at 1 µM [2] [%] | remaining binding at 1 µM [3] [%] | remaining binding at 1 µM [4] [%] | remaining binding at 1 µM [5] [%] | remaining binding at 1 µM [6] [%] | remaining binding at 1 µM [7] [%] | remaining binding at 1 µM [8] [%] | remaining binding at 1 µM [9] [%] | remaining binding at 1 µM [10] [%] | remaining binding at 1 µM [11] [%] |
| --- | --- | --- | --- | --- | --- | --- | --- | --- | --- | --- | --- |
| Cc1ccc(NC(=O)C2(C(=O)Nc3ccc(F)cc3)CC2)cc1C#Cc1cnc2c(Nc3cnn(C(C)C)c3)cccn12 [Example 78] | 96 | 100 | 81 | 100 | 99 | 92 | 92 | 100 | 62 | 99 | 90 |
| Cc1cn(-c2cc(NC(=O)c3ccc(C)c(C#Cc4cnc5c(Nc6cnn(C)c6)cccn45)c3)cc(C(F)(F)F)c2)cn1 [Example 12, 4-methyl-N-(3-(4-methyl-1H-imidazol-1-yl)-5-(trifluoromethyl)phenyl)-3-((8-((1-methyl-1H-pyrazol-4-yl)amino)imidazo[1,2-a]pyridin-3-yl)ethynyl)benzamide] | 100 | 75 | 68 | 100 | 82 | 77 | 100 | 29 | 100 | 100 | 19 |
| Cc1ccc(C(=O)Nc2ccc(CN3CCN(C)CC3)c(C(F)(F)F)c2)cc1C#Cc1cnc2c(Nc3cnn(C)c3)cccn12 [Example 1, 4-methyl-3-((8-((1-methyl-1H-pyrazol-4-yl)amino)imidazo[1,2-a]pyridin-3-yl)ethynyl)-N-(4-((4-methylpiperazin-1-yl)methyl)-3-(trifluoromethyl)phenyl)benzamide] | 93 | 10 | 1 | 95 | 37 | 81 | 100 | 4 | 84 | 88 | 2 |
